Patent publication US20240109903A1, “SUBSTITUTED HETEROCYCLES FOR TREATING CANCER” (Northwestern University, priority 2022, published 2024)
Where two headings read alike, the source gives them in different places.

Key:
Type in all cases: cell-based
HL-60(TB) = test: NCI 60 five-dose screen HL-60(TB); conditions: Homo sapiens; for CC50: read-out: LC50 (the source's name) (converted)
MOLT-4 = test: NCI 60 five-dose screen MOLT-4; conditions: Homo sapiens; for CC50: read-out: LC50 (the source's name)
RPMI-8226 = test: NCI 60 five-dose screen RPMI-8226; conditions: Homo sapiens; for CC50: read-out: LC50 (the source's name)
A549/ATCC = test: NCI 60 five-dose screen A549/ATCC; conditions: Homo sapiens; for CC50: read-out: LC50 (the source's name) (converted)
NCI-H460 = test: NCI 60 five-dose screen NCI-H460; conditions: Homo sapiens; for CC50: read-out: LC50 (the source's name) (converted)
NCI-H522 = test: NCI 60 five-dose screen NCI-H522; conditions: Homo sapiens; for CC50: read-out: LC50 (the source's name) (converted)
SW-620 = test: NCI 60 five-dose screen SW-620; conditions: Homo sapiens; for CC50: read-out: LC50 (the source's name) (converted)
SF-539 = test: NCI 60 five-dose screen SF-539; conditions: Homo sapiens; for CC50: read-out: LC50 (the source's name) (converted)
SNB-19 = test: NCI 60 five-dose screen SNB-19; conditions: Homo sapiens; for CC50: read-out: LC50 (the source's name) (converted)
U251 = test: NCI 60 five-dose screen U251; conditions: Homo sapiens
MALME-3M = test: NCI 60 five-dose screen MALME-3M; conditions: Homo sapiens; for CC50: read-out: LC50 (the source's name) (converted)
M14 = test: NCI 60 five-dose screen M14; conditions: Homo sapiens; for CC50: read-out: LC50 (the source's name) (converted)
MDA-MB-435 = test: NCI 60 five-dose screen MDA-MB-435; conditions: Homo sapiens; for CC50: read-out: LC50 (the source's name) (converted)
SK-MEL-28 = test: NCI 60 five-dose screen SK-MEL-28; conditions: Homo sapiens; for CC50: read-out: LC50 (the source's name) (converted)
IGROV1 = test: NCI 60 five-dose screen IGROV1; conditions: Homo sapiens
OVCAR-3 = test: NCI 60 five-dose screen OVCAR-3; conditions: Homo sapiens; for CC50: read-out: LC50 (the source's name) (converted)
786-0 = test: NCI 60 five-dose screen 786-0; conditions: Homo sapiens; for CC50: read-out: LC50 (the source's name) (converted)
ACHN = test: NCI 60 five-dose screen ACHN; conditions: Homo sapiens; for CC50: read-out: LC50 (the source's name) (converted)
RXF 393 = test: NCI 60 five-dose screen RXF 393; conditions: Homo sapiens; for CC50: read-out: LC50 (the source's name) (converted)
TK-10 = test: NCI 60 five-dose screen TK-10; conditions: Homo sapiens; for CC50: read-out: LC50 (the source's name) (converted)
PC-3 = test: NCI 60 five-dose screen PC-3; conditions: Homo sapiens; for CC50: read-out: LC50 (the source's name) (converted)
MCF7 = test: NCI 60 five-dose screen MCF7; conditions: Homo sapiens; for CC50: read-out: LC50 (the source's name) (converted)
HS 578T = test: NCI 60 five-dose screen HS 578T; conditions: Homo sapiens; for CC50: read-out: LC50 (the source's name)
T-47D = test: NCI 60 five-dose screen T-47D; conditions: Homo sapiens, T47D; for CC50: read-out: LC50 (the source's name)

## OC1CCC(Cn2c(C(F)(F)F)cc3c(Cl)ncnc32)CC1 (stereo not drawn) [NUCC-0226689]
HL-60(TB); five-dose
  GI50: 2.63 µM
  IC50: 5.01 µM
  IC (TGI): 8.91 µM
  CC50: ≥ 100 µM
MOLT-4; five-dose
  GI50: 2.75 µM
  IC50: 4.47 µM
  IC (TGI): 8.13 µM
  CC50: ≥ 100 µM
RPMI-8226; five-dose
  GI50: 33.9 µM
  IC50: 58.9 µM
  IC (TGI): 100 µM
  CC50: ≥ 100 µM
A549/ATCC; five-dose
  GI50: 30.9 µM
  IC50: 43.7 µM
  IC (TGI): 100 µM
  CC50: ≥ 100 µM
NCI-H460; five-dose
  GI50: 4.79 µM
  IC50: 5.5 µM
  IC (TGI): 16.6 µM
  CC50: 53.7 µM
NCI-H522; five-dose
  GI50: 1.55 µM
  IC50: 3.09 µM
  IC (TGI): 3.55 µM
  CC50: 8.13 µM
SW-620; five-dose
  GI50: 12.3 µM
  IC50: 17 µM
  IC (TGI): 38.9 µM
  CC50: ≥ 100 µM
SF-539; five-dose
  GI50: 17.8 µM
  IC50: 32.4 µM
  IC (TGI): 38.9 µM
  CC50: 85.1 µM
SNB-19; five-dose
  GI50: 13.5 µM
  IC50: 24 µM
  IC (TGI): 26.9 µM
  CC50: 53.7 µM
U251; U-251, five-dose
  GI50: 3.24 µM
  IC50: 4.27 µM
  IC (TGI): 12.9 µM
U251; U-251, five-dose, read-out: LC50 (the source's name) (converted)
  CC50: 44.7 µM
MALME-3M; MALME-3M, five-dose
  GI50: 17.8 µM
  IC50: 85.1 µM
  IC (TGI): 64.6 µM
  CC50: ≥ 100 µM
M14; five-dose
  GI50: 4.9 µM
  IC50: 8.71 µM
  IC (TGI): 26.9 µM
  CC50: ≥ 100 µM
MDA-MB-435; five-dose
  GI50: 12 µM
  IC50: 20 µM
  IC (TGI): 25.7 µM
  CC50: 55 µM
SK-MEL-28; five-dose
  GI50: 9.33 µM
  IC50: 19.1 µM
  IC (TGI): 30.9 µM
  CC50: ≥ 100 µM
IGROV1; IGROV-1, five-dose
  GI50: 1.95 µM
  IC50: 3.47 µM
  IC (TGI): 4.07 µM
IGROV1; IGROV-1, five-dose, read-out: LC50 (the source's name) (converted)
  CC50: 8.51 µM
OVCAR-3; five-dose
  GI50: 8.13 µM
  IC50: 19.1 µM
  IC (TGI): 28.8 µM
  CC50: 97.7 µM
786-0; five-dose
  GI50: 32.4 µM
  IC50: 49 µM
  IC (TGI): 100 µM
  CC50: ≥ 100 µM
ACHN; five-dose
  GI50: 8.71 µM
  IC50: 15.5 µM
  IC (TGI): 50.1 µM
  CC50: ≥ 100 µM
RXF 393; five-dose
  GI50: 12.6 µM
  IC50: 37.2 µM
  IC (TGI): 34.7 µM
  CC50: 97.7 µM
TK-10; five-dose
  GI50: 100 µM
  IC50: 100 µM
  IC (TGI): 100 µM
  CC50: ≥ 100 µM
PC-3; five-dose
  GI50: 8.91 µM
  IC50: 15.5 µM
  IC (TGI): 36.3 µM
  CC50: ≥ 100 µM
MCF7; five-dose
  GI50: 37.2 µM
  IC50: 52.5 µM
  IC (TGI): 100 µM
  CC50: ≥ 100 µM
HS 578T; five-dose
  GI50: 13.8 µM
  IC50: 93.3 µM
  IC (TGI): 53.7 µM
  CC50: ≥ 100 µM
T-47D; five-dose
  GI50: 26.3 µM
  IC50: 91.2 µM
  IC (TGI): 100 µM
  CC50: ≥ 100 µM

## COc1cc(Cn2c(C(F)(F)F)cc3c(Cl)ncnc32)ccn1 [NUCC-0226694]
HL-60(TB)
  GI50: 2.14 µM
  IC50: 3.39 µM
  IC (TGI): 7.24 µM
  CC50: ≥ 100 µM
MOLT-4
  GI50: 3.31 µM
  IC50: 4.57 µM
  IC (TGI): 100 µM
  CC50: ≥ 100 µM
RPMI-8226
  GI50: 15.5 µM
  IC50: 26.3 µM
  IC (TGI): 79.4 µM
  CC50: ≥ 100 µM
A549/ATCC
  GI50: 16.6 µM
  IC50: 27.5 µM
  IC (TGI): 38 µM
  CC50: 89.1 µM
NCI-H460
  GI50: 2.69 µM
  IC50: 3.31 µM
  IC (TGI): 8.13 µM
  CC50: 34.7 µM
NCI-H522
  GI50: 3.31 µM
  IC50: 11 µM
  IC (TGI): 15.1 µM
  CC50: 50.1 µM
SW-620
  GI50: 3.89 µM
  IC50: 4.9 µM
  IC (TGI): 16.6 µM
  CC50: 49 µM
SF-539
  GI50: 13.8 µM
  IC50: 24.5 µM
  IC (TGI): 26.9 µM
  CC50: 51.3 µM
SNB-19
  GI50: 11.7 µM
  IC50: 21.4 µM
  IC (TGI): 24 µM
  CC50: 49 µM
U251; U-251
  GI50: 15.1 µM
  IC50: 26.9 µM
  IC (TGI): 28.8 µM
U251; U-251, read-out: LC50 (the source's name) (converted)
  CC50: 56.2 µM
MALME-3M; Malme-3M
  GI50: 12.6 µM
  IC50: 25.7 µM
  IC (TGI): 25.7 µM
  CC50: 51.3 µM
M14
  GI50: 1.51 µM
  IC50: 2.69 µM
  IC (TGI): 4.17 µM
  CC50: 16.6 µM
MDA-MB-435
  GI50: 3.24 µM
  IC50: 4.79 µM
  IC (TGI): 14.5 µM
  CC50: 50.1 µM
SK-MEL-28
  GI50: 4.57 µM
  IC50: 10 µM
  IC (TGI): 16.2 µM
  CC50: 40.7 µM
IGROV1; IGROV-1
  GI50: 1.78 µM
  IC50: 3.16 µM
  IC (TGI): 3.63 µM
IGROV1; IGROV-1, read-out: LC50 (the source's name) (converted)
  CC50: 7.41 µM
OVCAR-3
  GI50: 2.34 µM
  IC50: 4.07 µM
  IC (TGI): 7.08 µM
  CC50: 30.9 µM
786-0
  GI50: 10.7 µM
  IC50: 17 µM
  IC (TGI): 25.7 µM
  CC50: 63.1 µM
ACHN
  GI50: 14.5 µM
  IC50: 25.1 µM
  IC (TGI): 28.8 µM
  CC50: 57.5 µM
RXF 393
  GI50: 7.94 µM
  IC50: 24.5 µM
  IC (TGI): 22.4 µM
  CC50: 55 µM
TK-10
  GI50: 19.1 µM
  IC50: 45.7 µM
  IC (TGI): 46.8 µM
  CC50: ≥ 100 µM
PC-3
  GI50: 5.5 µM
  IC50: 9.55 µM
  IC (TGI): 20.9 µM
  CC50: 58.9 µM
MCF7
  GI50: 5.13 µM
  IC50: 7.24 µM
  IC (TGI): 20 µM
  CC50: 61.7 µM
HS 578T
  GI50: 3.16 µM
  IC50: 24.5 µM
  IC (TGI): 16.6 µM
  CC50: ≥ 100 µM
T-47D
  GI50: 13.5 µM
  IC50: 38 µM
  IC (TGI): 61.7 µM
  CC50: ≥ 100 µM
